Assay: Transdermal delivery of melatonin: plasma level of melatonin after applying composition to skin of a subject
Conditions: for concentration at 0 h / concentration at 1 h / concentration at 2 h / concentration at 0 hr / concentration at 1 hr / concentration at 2 hr / concentration at 4 hr / concentration at 8 hr / concentration at 4 h / concentration at 8 h: human, plasma, topical, 3 mg

COc1ccc2[nH]cc(CCNC(C)=O)c2c1 [Melatonin]
Plasma level of melatonin (2-(Dimethylamino)ethyl 2-(4-isobutylphenyl)propionate hydrochloride 222.60 mM, 0.60 mL applied to skin, 1 hr after transdermal administration): 1.5 ng/mL
Plasma level of melatonin (2-(Dimethylamino)ethyl 2-(4-isobutylphenyl)propionate hydrochloride 222.60 mM, 0.60 mL applied to skin, 2 hr after transdermal administration): 1.7 ng/mL
Plasma level of melatonin (2-(Dimethylamino)ethyl 2-(4-isobutylphenyl)propionate hydrochloride 222.60 mM, 0.60 mL applied to skin, 4 hr after transdermal administration): 1.6 ng/mL
Plasma level of melatonin (2-(Dimethylamino)ethyl 2-(4-isobutylphenyl)propionate hydrochloride 222.60 mM, 0.60 mL applied to skin, 8 hr after transdermal administration): 1.5 ng/mL
Plasma level of melatonin (4-(Diethylamino)butyl 2-(4-isobutylphenyl)propionate hydrochloride 189.21 mM, 0.60 mL applied to skin, 0 hr after transdermal administration): 0 ng/mL
Plasma level of melatonin (4-(Diethylamino)butyl 2-(4-isobutylphenyl)propionate hydrochloride 189.21 mM, 0.60 mL applied to skin, 1 hr after transdermal administration): 1.4 ng/mL
Plasma level of melatonin (4-(Diethylamino)butyl 2-(4-isobutylphenyl)propionate hydrochloride 189.21 mM, 0.60 mL applied to skin, 2 hr after transdermal administration): 1.5 ng/mL
Plasma level of melatonin (4-(Diethylamino)butyl 2-(4-isobutylphenyl)propionate hydrochloride 189.21 mM, 0.60 mL applied to skin, 4 hr after transdermal administration): 1.5 ng/mL
Plasma level of melatonin (4-(Diethylamino)butyl 2-(4-isobutylphenyl)propionate hydrochloride 189.21 mM, 0.60 mL applied to skin, 8 hr after transdermal administration): 1.3 ng/mL
Plasma level of melatonin (5-(Diethylamino)pentyl 2-(4-isobutylphenyl)propionate hydrochloride 182.28 mM, 0.60 mL applied to skin, 1 hr after transdermal administration): 1.6 ng/mL
Plasma level of melatonin (5-(Diethylamino)pentyl 2-(4-isobutylphenyl)propionate hydrochloride 182.28 mM, 0.60 mL applied to skin, 2 hr after transdermal administration): 1.9 ng/mL
Plasma level of melatonin (5-(Diethylamino)pentyl 2-(4-isobutylphenyl)propionate hydrochloride 182.28 mM, 0.60 mL applied to skin, 4 hr after transdermal administration): 1.9 ng/mL
Plasma level of melatonin (5-(Diethylamino)pentyl 2-(4-isobutylphenyl)propionate hydrochloride 182.28 mM, 0.60 mL applied to skin, 8 hr after transdermal administration): 1.7 ng/mL
Plasma level of melatonin (Helper esters: None (0 mM), 2.0 mL applied to skin, 0 hr after transdermal administration): 0.0 ng/mL
concentration at 0 h: 0 ng/mL
concentration at 0 h (Plasma level of melatonin, Helper esters: None (0 mM), 2.0 mL applied to skin, 0 hr after transdermal administration): 0 ng/mL
concentration at 1 h (Plasma level of melatonin, Helper esters: None (0 mM), 2.0 mL applied to skin, 1 hr after transdermal administration): 0.1 ng/mL
concentration at 2 h (Plasma level of melatonin, Helper esters: None (0 mM), 2.0 mL applied to skin, 2 hr after transdermal administration): 0.1 ng/mL
concentration at 0 hr (Plasma level of melatonin, Isoleucine hexyl ester 278.04 mM, 0.60 mL applied to skin, 0 hr after transdermal administration): 0 ng/mL
concentration at 1 hr (Plasma level of melatonin, Isoleucine hexyl ester 278.04 mM, 0.60 mL applied to skin, 1 hr after transdermal administration): 1.2 ng/mL
concentration at 2 hr (Plasma level of melatonin, Isoleucine hexyl ester 278.04 mM, 0.60 mL applied to skin, 2 hr after transdermal administration): 1.3 ng/mL
concentration at 4 hr (Plasma level of melatonin, Isoleucine hexyl ester 278.04 mM, 0.60 mL applied to skin, 4 hr after transdermal administration): 1.4 ng/mL
concentration at 8 hr (Plasma level of melatonin, Isoleucine hexyl ester 278.04 mM, 0.60 mL applied to skin, 8 hr after transdermal administration): 1.3 ng/mL
concentration at 0 hr (Plasma level of melatonin, Isoleucine isopropyl ester 333.76 mM, 0.60 mL applied to skin, 0 hr after transdermal administration): 0 ng/mL
concentration at 1 hr (Plasma level of melatonin, Isoleucine isopropyl ester 333.76 mM, 0.60 mL applied to skin, 1 hr after transdermal administration): 1.7 ng/mL
concentration at 2 hr (Plasma level of melatonin, Isoleucine isopropyl ester 333.76 mM, 0.60 mL applied to skin, 2 hr after transdermal administration): 1.8 ng/mL
concentration at 4 hr (Plasma level of melatonin, Isoleucine isopropyl ester 333.76 mM, 0.60 mL applied to skin, 4 hr after transdermal administration): 1.9 ng/mL
concentration at 8 hr (Plasma level of melatonin, Isoleucine isopropyl ester 333.76 mM, 0.60 mL applied to skin, 8 hr after transdermal administration): 1.8 ng/mL
concentration at 0 h (Plasma level of melatonin, Leucine hexyl ester hydrochloride 278.04 mM, 0.60 mL applied to skin, 0 hr after transdermal administration): 0 ng/mL
concentration at 1 h (Plasma level of melatonin, Leucine hexyl ester hydrochloride 278.04 mM, 0.60 mL applied to skin, 1 hr after transdermal administration): 1.4 ng/mL
concentration at 2 h (Plasma level of melatonin, Leucine hexyl ester hydrochloride 278.04 mM, 0.60 mL applied to skin, 2 hr after transdermal administration): 1.5 ng/mL
concentration at 4 hr (Plasma level of melatonin, Leucine hexyl ester hydrochloride 278.04 mM, 0.60 mL applied to skin, 4 hr after transdermal administration): 1.5 ng/mL
concentration at 8 hr (Plasma level of melatonin, Leucine hexyl ester hydrochloride 278.04 mM, 0.60 mL applied to skin, 8 hr after transdermal administration): 1.3 ng/mL
concentration at 0 h (Plasma level of melatonin, Leucine isopropyl ester hydrochloride 333.76 mM, 0.60 mL applied to skin, 0 hr after transdermal administration): 0 ng/mL
concentration at 1 h (Plasma level of melatonin, Leucine isopropyl ester hydrochloride 333.76 mM, 0.60 mL applied to skin, 1 hr after transdermal administration): 1.7 ng/mL
concentration at 2 h (Plasma level of melatonin, Leucine isopropyl ester hydrochloride 333.76 mM, 0.60 mL applied to skin, 2 hr after transdermal administration): 1.8 ng/mL
concentration at 4 h (Plasma level of melatonin, Leucine isopropyl ester hydrochloride 333.76 mM, 0.60 mL applied to skin, 4 hr after transdermal administration): 1.9 ng/mL
concentration at 8 h (Plasma level of melatonin, Leucine isopropyl ester hydrochloride 333.76 mM, 0.60 mL applied to skin, 8 hr after transdermal administration): 1.8 ng/mL
concentration at 0 hr (Plasma level of melatonin, Phenylalanine isopropyl ester hydrochloride 287.21 mM, 0.60 mL applied to skin, 0 hr after transdermal administration): 0 ng/mL
concentration at 1 hr (Plasma level of melatonin, Phenylalanine isopropyl ester hydrochloride 287.21 mM, 0.60 mL applied to skin, 1 hr after transdermal administration): 1.6 ng/mL
concentration at 2 hr (Plasma level of melatonin, Phenylalanine isopropyl ester hydrochloride 287.21 mM, 0.60 mL applied to skin, 2 hr after transdermal administration): 1.7 ng/mL
concentration at 4 hr (Plasma level of melatonin, Phenylalanine isopropyl ester hydrochloride 287.21 mM, 0.60 mL applied to skin, 4 hr after transdermal administration): 1.6 ng/mL
concentration at 8 hr (Plasma level of melatonin, Phenylalanine isopropyl ester hydrochloride 287.21 mM, 0.60 mL applied to skin, 8 hr after transdermal administration): 1.7 ng/mL
concentration at 0 h (Plasma level of melatonin, Phenylalanine octyl ester hydrochloride 223.02 mM, 0.60 mL applied to skin, 0 hr after transdermal administration): 0 ng/mL
concentration at 1 h (Plasma level of melatonin, Phenylalanine octyl ester hydrochloride 223.02 mM, 0.60 mL applied to skin, 1 hr after transdermal administration): 1.3 ng/mL
concentration at 2 h (Plasma level of melatonin, Phenylalanine octyl ester hydrochloride 223.02 mM, 0.60 mL applied to skin, 2 hr after transdermal administration): 1.4 ng/mL
concentration at 4 h (Plasma level of melatonin, Phenylalanine octyl ester hydrochloride 223.02 mM, 0.60 mL applied to skin, 4 hr after transdermal administration): 1.3 ng/mL
concentration at 8 h (Plasma level of melatonin, Phenylalanine octyl ester hydrochloride 223.02 mM, 0.60 mL applied to skin, 8 hr after transdermal administration): 1.2 ng/mL
concentration at 0 hr (Plasma level of melatonin, Table 20 control, A− N/A, helper esters 0 mM, 2.0 mL applied, 0 hr after transdermal administration): 0 ng/mL
concentration at 1 hr (Plasma level of melatonin, Table 20 control, A− N/A, helper esters 0 mM, 2.0 mL applied, 1 hr after transdermal administration): 0.1 ng/mL
concentration at 2 h (Plasma level of melatonin, Table 20 control, A− N/A, helper esters 0 mM, 2.0 mL applied, 2 hr after transdermal administration): 0.1 ng/mL
